# Measured values: patent US20100003276A1 (priority 2004, published 2010)
# Biological target: Bacillus anthracis lethal factor (Bacillus anthracis, UniProt P15917)
# Format: biochemical
# Conditions: read-out: lethal factor enzyme binding assay IC50
# Chain of Bacillus anthracis lethal factor (P15917 34-809 limits assumed): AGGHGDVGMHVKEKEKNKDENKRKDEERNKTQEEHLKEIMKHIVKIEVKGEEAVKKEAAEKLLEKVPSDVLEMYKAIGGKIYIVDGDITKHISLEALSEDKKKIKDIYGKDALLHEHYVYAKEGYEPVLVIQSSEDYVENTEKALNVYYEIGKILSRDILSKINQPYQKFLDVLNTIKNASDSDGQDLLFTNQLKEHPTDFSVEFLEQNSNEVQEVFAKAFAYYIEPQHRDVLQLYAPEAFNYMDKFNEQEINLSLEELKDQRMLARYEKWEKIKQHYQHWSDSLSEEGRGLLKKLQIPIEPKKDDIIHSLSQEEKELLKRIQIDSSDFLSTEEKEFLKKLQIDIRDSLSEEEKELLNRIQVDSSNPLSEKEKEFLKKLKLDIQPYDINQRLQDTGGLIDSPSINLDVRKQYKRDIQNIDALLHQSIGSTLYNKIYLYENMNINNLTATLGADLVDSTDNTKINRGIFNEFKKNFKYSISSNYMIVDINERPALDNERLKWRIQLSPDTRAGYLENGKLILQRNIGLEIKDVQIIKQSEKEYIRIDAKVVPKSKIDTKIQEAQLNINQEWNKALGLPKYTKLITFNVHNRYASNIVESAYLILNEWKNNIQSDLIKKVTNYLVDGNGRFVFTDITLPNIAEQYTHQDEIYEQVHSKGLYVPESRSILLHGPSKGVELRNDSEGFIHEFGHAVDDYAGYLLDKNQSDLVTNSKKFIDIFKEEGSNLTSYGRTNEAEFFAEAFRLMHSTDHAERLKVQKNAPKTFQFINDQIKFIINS
smiles,measurement,value
Cc1cc(S(=O)(=O)N[C@@H](C(=O)NO)C(C)C)ccc1F [N-hydroxy-2(R)-[(4-fluoro-3-methylphenylsulfonyl)]amino-3-methylbutyramide],IC50,130 nM
